Laboratory results from patent publication US10689622B2, “Culture medium for proliferating stem cell, which contains sulfated compound” (AJINOMOTO CO., INC., priority 2012, dated 2020).

Legend:
[1] = target: T1, bFGF (Homo sapiens, UniProt P09038); test: Evaluation of bFGF stabilization in Lonza serum-free medium (ELISA); format: biochemical; conditions: for concentration at which a decrease in the protein amount of FGF is not suppressed: as shown in the Examples (methods of Examples I-1 and II-1)
T1 construct: purchased Lonza (via TAKARA BIO INC.) Ser. No. 00/190,632
Method: (§1) A test compound was dissolved in phosphate buffered saline, and diluted 10-fold with a serum-free medium to adjust to the concentrations shown in Table 4 (test sample). The test sample was left standing in a tightly sealed Falcon tube at 37° C. for 7 days (Tables 5 to 8-2) or 3 days (Table 8-3), and the bFGF concentration was quantified by ELISA measurement. A phosphate buffered saline without a test compound was diluted 10-fold with a serum-free medium, and left standing at 37° C. or 4° C. for 7 days or 3 days, and used as a control.
(§2) A commercially available measurement kit (human bFGF ELISA kit, ELH-bFGF-001, Ray Biotech) was used for quantification of bFGF in the medium. The measurement procedures followed the protocol attached to the kit. The bFGF concentration of the serum-free medium was calculated from the analytical curve (conversion formula) drawn from the absorbance of an analytical curve standard solution. The evaluation criteria of Tables 5-8 are as follows:
as §1, with “Table 13” for “Table 4”, “7 days,” for “7 days (Tables 5 to 8-2) or 3 days (Table 8-3),”, “7” for “7 days or 3”
as §2, with “Table 13” for “Tables 5-8”, “follows: […]” for “follows:”

[2] = target: T1, bFGF; test: Evaluation of bFGF stabilization in Essential 8 medium (ELISA); format: biochemical; conditions: 37° C. for 7 days
Method: as §2
(§3) A test compound was dissolved in phosphate buffered saline, and diluted 10-fold with a serum-free medium to adjust the concentration shown in Table 4 (test sample). The test sample was left standing in a tightly sealed Falcon tube at 37° C. for 7 days, and the bFGF concentration was quantified by ELISA measurement. A phosphate buffered saline without a test compound was diluted 10-fold with Essential 8 medium or ReproFF2 medium, and left standing at 37° C. or 4° C. for 7 days, and used as a control.
as §2, with “Table 13” for “Tables 5-8”
as §3, with “Table 12” for “Table 4”

[3] = Measurement of content level of sulfur in test compound (ICP); format: physicochemical; conditions: for sulfur content Found (inorganic analysis): ICPS-8100, evaluation samples containing 0.01 wt % test compound
Text: (§4) The content level of sulfur in the sulfated saccharide is generally not less than 5 wt %, preferably not less than 10 wt %, more preferably not less than 15 wt %, and the upper limit is generally not more than 40 wt %, preferably not more than 35 wt %, more preferably not more than 30 wt %. […] Here, the content level of sulfur is a proportion in wt % of sulfur derived only from the sulfate group in sulfated saccharides, which can be measured by a method known in the field (e.g., rhodizonate method, elemental analysis or luminescent spectral analysis).
as §4, with “polymer” for “saccharide”, “wt” for “wt %, preferably not more than 35 wt %, more preferably not more than 30 wt”, “in” for “derived only from”, “the” for “the sulfate group in”, “polymer,” for “saccharides,”, “such as” for “(e.g.,”
The relationship between the content level of sulfur in a test compound (sulfur content) and the cell proliferation promoting effect was examined. The sulfur content was measured using ICPS-8100 manufactured by SHIMADZU CORPORATION and analyzed using ICPS-8000 series Ver1.03. As the reference standard of sulfur, the standard for ICP-MS manufactured by Accu Standard was used. Sulfur reference standard solutions (0, 1, 10, 30, 50 ppm) were prepared, and the sulfur content of the evaluation samples containing 0.01 wt % test compound was measured by an analytical curve method.

[4] = system: Human bone marrow-derived mesenchymal stem cells; test: Mesenchymal stem cell proliferation system (cell number by DNA quantification); conditions: for number of cells relative to control: mesenchymal stem cells
Method: Human bone marrow-derived mesenchymal stem cells (Lonza, Human Mesenchymal Stem Cell) cultured in mesenchymal stem cell-dedicated medium (Lonza, MSCGM) or Dulbecco's Modified Eagle Medium (Invitrogen, GIBCO D-MEM) containing inactivated fetal bovine serum (Invitrogen, GIBCO FBS) and penicillin-streptomycin (Sigma-Aldrich Co. LLC.) were cultured in exchanged Lonza serum-free medium. The mesenchymal stem cells thus-acclimated to serum-free culture were suspended in Lonza serum-free medium, and seeded on a 24 well culture plate (Nippon Becton Dickinson Company, Ltd., Falcon culture plate) at 20,000 cells/well or a 6 well culture plate (Nippon Becton Dickinson Company, Ltd., Falcon culture plate) at 50,000 cells/well. Then, a test compound solution after filter sterilization and adjustment to a given concentration was added, and the cells were cultured in an incubator (Thermo Scientific, Forma incubator) under the 5% CO2/37° C. conditions for 7 to 8 days. When the medium exchange was necessary, the medium was exchanged 2 to 3 days after the seeding. In this case, the test compound solution was also added again in the same manner as in seeding. In this case, various compound solutions were added again in the same manner as in seeding. After culturing for 7 to 8 days, the medium was removed and DNA quantification was performed. As a control, the cells were cultured in the same manner in a medium without a test compound and added with phosphate buffered saline.
The medium in the 24 well culture plate was removed, and the cells were washed with phosphate buffered saline. The sodium lauryl sulfate solution (500 μl/well) was added, and the mixture was left standing at 37° C. for 4 hours. The sodium lauryl sulfate solution (1.0 ml) was also added to a cell pellet with a known cell number, and the mixture was left standing at 37° C. for 4 hours. As for the cells in the 24 well culture plate, a part (50 μl) of the lysate was transferred to a 96 well black microplate. The solution used for treating the cell pellets was successively diluted with sodium lauryl sulfate solution and used as solutions for drawing an analytical curve. Also, a part (50 μl) of the solutions for drawing an analytical curve was each transferred to the 96 well black microplate. […] The fluorescence was measured by a microplate reader (excitation wavelength: 355 nm, measurement wavelength: 460 nm) within 5 minutes from the addition. The cell number of the 24 well cell culture plate was calculated from the analytical curve drawn (conversion formula). The evaluation criteria were as follows.

[5] = Lonza serum-free medium, 37° C. for 7 days, test compound 25 ng/ml
[6] = Lonza serum-free medium, 37° C. for 7 days, test compound 250 ng/ml
[7] = Lonza serum-free medium, 37° C. for 7 days, test compound 25 μg/ml
[8] = Lonza serum-free medium, 37° C. for 7 days, test compound 250 μg/ml
[9] = effectiveness in ELISA evaluation of mesenchymal stem cells (medium), 4° C. control ratio
[10] = growth of mesenchymal stem cell, control ratio

T1 sequence (P09038 143-288): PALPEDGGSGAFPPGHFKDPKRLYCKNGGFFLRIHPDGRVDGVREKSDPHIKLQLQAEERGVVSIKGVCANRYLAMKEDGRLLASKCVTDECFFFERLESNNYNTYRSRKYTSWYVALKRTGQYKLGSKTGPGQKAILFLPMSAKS

| concentration at which a decrease in the protein amount of FGF is not suppressed [1] | effectiveness ELISA [1, 9] | concentration showing a suppressive effect on a decrease in the bFGF concentration of the medium [2] | sulfur content Found (inorganic analysis) [3] [wt %] | Substance | bFGF concentration relative to that of 4° C. control (ELISA) [1, 5] | bFGF concentration relative to that of 4° C. control (ELISA) [1, 6] | bFGF concentration relative to that of 4° C. control (ELISA) [1, 7] | bFGF concentration relative to that of 4° C. control (ELISA) [1, 8] | bFGF concentration relative to that of 4° C. control (ELISA) ([2]; test compound 250 pg/ml) | bFGF concentration relative to that of 4° C. control (ELISA) ([2]; test compound 25 ng/ml) | bFGF concentration relative to that of 4° C. control (ELISA) ([2]; test compound 250 ng/ml) | bFGF concentration relative to that of 4° C. control (ELISA) ([2]; test compound 25 μg/ml) | bFGF concentration relative to that of 4° C. control (ELISA) ([2]; test compound 250 μg/ml) | effectiveness cells [4, 10] | also measured |
| --- | --- | --- | --- | --- | --- | --- | --- | --- | --- | --- | --- | --- | --- | --- | --- |
| not more than 2.5 μg/ml |  |  |  | L-triserine SO3Na | x (bFGF concentration was less than 10% relative to that of 4 °C control) | x (bFGF concentration was less than 10% relative to that of 4 °C control) | − (bFGF concentration was not less than 10% and less than 30% relative to that of 4 °C control) | ++ (bFGF concentration was not less than 50% and less than 70% relative to that of 4 °C control) |  |  |  |  |  |  | concentration showing a suppressive effect on a decrease in the bFGF concentration of the medium ([1]; Lonza serum-free medium, 37° C. for 7 days): not less than 25 μg/ml; bFGF concentration relative to that of 4° C. control (ELISA) ([1]; Lonza serum-free medium, 37° C. for 7 days, test compound 250 pg/ml): x (bFGF concentration was less than 10% relative to that of 4 °C control); effectiveness ELISA ([1]; summary grade of bFGF stabilization): ++ (bFGF concentration was not less than 50% and less than 70% relative to that of 4 °C control); bFGF concentration, 4° C. ctrl ratio ([2]; test compound 250 pg/ml): x (bFGF concentration was less than 10% relative to that of 4 °C control); bFGF concentration, 4° C. ctrl ratio ([2]; test compound 25 ng/ml): x (bFGF concentration was less than 10% relative to that of 4 °C control); bFGF concentration, 4° C. ctrl ratio ([2]; test compound 250 ng/ml): x (bFGF concentration was less than 10% relative to that of 4 °C control); bFGF concentration, 4° C. ctrl ratio ([2]; test compound 25 μg/ml): ++ (bFGF concentration was not less than 50% and less than 70% relative to that of 4 °C control); bFGF concentration, 4° C. ctrl ratio ([2]; test compound 250 μg/ml): +++ (bFGF concentration was not less than 70% relative to that of 4 °C control); sulfer content Found (inorganic analysis) [3]: 18; effectiveness cells ([4]; summary grade of cell proliferation): ⊚ (not less than 120); number of cells relative to control ([4]; test compound 25 pg/ml): — (100-50); number of cells relative to control ([4]; test compound 250 pg/ml): ◯ (not less than 100); number of cells relative to control ([4]; test compound 25 ng/ml): — (100-50); number of cells relative to control ([4]; test compound 250 ng/ml): — (100-50) |
|  | + (+ 30%<) | not less than 25 μg/ml | 16 | erythritol SO3Na | x (bFGF concentration was less than 10% relative to that of 4 °C control) | x (bFGF concentration was less than 10% relative to that of 4 °C control) | x (bFGF concentration was less than 10% relative to that of 4 °C control) | + (bFGF concentration was not less than 30% and less than 50% relative to that of 4 °C control) | x (bFGF concentration was less than 10% relative to that of 4 °C control) | x (bFGF concentration was less than 10% relative to that of 4 °C control) | x (bFGF concentration was less than 10% relative to that of 4 °C control) | + (bFGF concentration was not less than 30% and less than 50% relative to that of 4 °C control) | +++ (bFGF concentration was not less than 70% relative to that of 4 °C control) | ◯ (◯ not leas than 100%) | concentration showing a suppressive effect on a decrease in the bFGF concentration in the medium ([1]; Lonza serum-free medium, 37° C. for 3 days): not less than 25 μg/ml; bFGF concentration relative to that of 4° C. control (ELISA) ([1]; Lonza serum-free medium, 37° C. for 3 days, test compound 25 ng/ml): x (bFGF concentration was less than 10% relative to that of 4 °C control); bFGF concentration relative to that of 4° C. control (ELISA) ([1]; Lonza serum-free medium, 37° C. for 3 days, test compound 250 ng/ml): x (bFGF concentration was less than 10% relative to that of 4 °C control); bFGF concentration relative to that of 4° C. control (ELISA) ([1]; Lonza serum-free medium, 37° C. for 3 days, test compound 25 μg/ml): ++ (bFGF concentration was not less than 50% and less than 70% relative to that of 4 °C control); bFGF concentration relative to that of 4° C. control (ELISA) ([1]; Lonza serum-free medium, 37° C. for 3 days, test compound 250 μg/ml): +++ (bFGF concentration was not less than 70% relative to that of 4 °C control) |
| not more than 2.5 μg/ml | ++ (++ 50%<) | not less than 25 μg/ml | 14 | gluconolactone-SO3Na | x (bFGF concentration was less than 10% relative to that of 4 °C control) | x (bFGF concentration was less than 10% relative to that of 4 °C control) | ++ (bFGF concentration was not less than 50% and less than 70% relative to that of 4 °C control) | x (bFGF concentration was less than 10% relative to that of 4 °C control) | x (bFGF concentration was less than 10% relative to that of 4 °C control) | x (bFGF concentration was less than 10% relative to that of 4 °C control) | x (bFGF concentration was less than 10% relative to that of 4 °C control) | ++ (bFGF concentration was not less than 50% and less than 70% relative to that of 4 °C control) | +++ (bFGF concentration was not less than 70% relative to that of 4 °C control) | ◯ (◯ not leas than 100%) |  |
